Laboratory results reported in patent US10227369B2, “Short-chain fatty acid hexosamine analogs and their use in tissue engineering applications” (THE JOHNS HOPKINS UNIVERSITY, priority 2013, dated 2019).

Columns and labels:
[1] = system: chondrogenic-induced MSCs; experiment: Chondrogenic-induced MSCs in 3D PEGDA hydrogels: biochemical analysis and histology; type: cell-based, goat; conditions: 21 days
Description: (§1) Goat MSCs were isolated from 2- to 4-year-old goats (Thomas D. Morris, Inc., Reisterstown, Md.), as previously described. Briefly, bone marrow aspirates treated with 6,000 U/ml heparin were washed twice with PBS. Cells were plated at a density of 120,000 mononuclear cells/cm^2 and cultured in high glucose DMEM supplemented with 10% (v/v) FBS, 2 mM L-glutamine, 100 U/ml penicillin and 100 μg/ml streptomycin. The following day, tissue culture dishes were washed with PBS and medium was replaced. Medium changes were performed 3 times per week. Cells were passaged using 0.25% trypsin. They were used for experiments after passage four.
Photoencapsulation in Poly(Ethylene Glycol)-Diacrylate (PEGDA) Hydrogels and Construct Culturing. For all 3D culture experiments, cells were photoencapsulated in PEGDA hydrogels, as previously described. Briefly, 100 mg PEGDA (3.4 kDa, SunBio, Anyang City, South Korea) was dissolved in 1 ml sterile PBS. A photoinitiator solution of Irgacure® 2959 (CIBA Specialty Chemicals) was prepared by dissolving 100 mg of Irgacure® 2959 in 1 ml 70% ethanol. Five microliters of the Irgacure® 2959 solution was added to 1 ml of PEGDA solution. Cells were suspended in the hydrogel precursor solution at a density of 20 million cells/ml and polymerized in sterile molds. A high cell density was chosen as it has been shown. Based on our previous studies a high cell density was chosen to best to support a cell phenotype and differentiation and cell phenotype. Polymerization was carried out using UV light (365 nm, 3.2 mW/cm^2) exposure for 5 minutes. […]
(§2) Biochemical Analysis. The constructs (n=3 for chondrocyte experiments and n=4 for chondrogenic experiments) were lyophilized for 48 hours and the dry weights measured. […] Quantification of DNA content was carried out using a Hoescht Dye 33342 DNA assay. […] Quantification of sulfated glycosaminoglycans (sGAG), a molecule found in cartilage ECM, was carried out using a 1,9-dimethylmethylene blue (DMMB) dye assay; chondroitin sulfate was used to generate standard curves. Quantification of collagen was carried out via measuring hydroxyproline content after hydrolyzing in 6 N HCl overnight at 120° C. […]

[2] = system: chondrogenic-induced MSCs; experiment: Chondrogenic-induced MSCs in 3D PEGDA hydrogels: real-time PCR gene expression; type: cell-based, goat
Description: as §1
(§3) Photoencapsulation in Poly(Ethylene Glycol)-Diacrylate (PEGDA) Hydrogels and Construct Culturing. For all 3D culture experiments, cells were photoencapsulated in PEGDA hydrogels, as previously described. Briefly, 100 mg PEGDA (3.4 kDa, SunBio, Anyang City, South Korea) was dissolved in 1 ml sterile PBS. A photoinitiator solution of Irgacure® 2959 (CIBA Specialty Chemicals) was prepared by dissolving 100 mg of Irgacure® 2959 in 1 ml 70% ethanol. Five microliters of the Irgacure® 2959 solution was added to 1 ml of PEGDA solution. Cells were suspended in the hydrogel precursor solution at a density of 20 million cells/ml and polymerized in sterile molds. A high cell density was chosen as it has been shown. Based on our previous studies a high cell density was chosen to best to support a cell phenotype and differentiation and cell phenotype. Polymerization was carried out using UV light (365 nm, 3.2 mW/cm^2) exposure for 5 minutes.
For chondrogenesis experiments, the cell-laden hydrogels were cultured in chondrogenic induction medium (high glucose DMEM supplemented with 50 μg/ml ascorbic acid-2-phosphate, 40 μg/ml L-proline, 100 μg/ml sodium pyruvate, 1% ITS-premix (6.25 μg/ml insulin, 6.25 μg/ml transferrin, 6.25 ng/ml selenous acid, 1.25 mg/ml bovine serum albumin (BSA), 5.35 μg/ml linoleic acid (Collaborative Biomedical, BD Bioscience, Bedford, Mass.)) and 10 ng/ml TGF-β1 (Fitzgerald Industries International, Acton, Mass.) with specified concentrations of GalNAc-a or 100 nM dexamethasone (as a control). Constructs were cultured for 21 days with medium changes 3 times per week. For IL-1β stimulation, the cell-laden hydrogels were cultured for 3 days in chondrogenic induction medium supplemented with 10 ng/ml IL-1β. Constructs were cultured for an additional 21 days with chondrogenic induction medium supplemented with 10 ng/ml IL-1β and the specified concentration of GalNAc-a.
RNA Isolation and Real-Time PCR. Total RNA was extracted using TRIzol® reagent (Life Technologies, Grand Island, N.Y.) following the manufacturer's protocol. cDNA was synthesized using Superscript® II reverse transcriptase (Life Technologies, Grand Island, N.Y.) following the manufacturer's protocol. Real-time PCR was carried out using a StepOnePlus™ Real-Time PCR System (Life Technologies, Grand Island, N.Y.). mRNA amounts for bovine primers were calculated using the ΔΔCt method. Relative mRNA quantities for goat primers were calculated using the Pfaffl method.

Chondrocytes = experiment: WST-1 metabolic activity/toxicity screening of monolayer chondrocytes; type: cell-based, bovine; conditions: 3 days exposure, 0-320 μM tested
Description: Cell Isolation and Culturing. Bovine chondrocytes were isolated from 4- to 8-week-old calves (Research 87, Inc., Boylston, Mass.), as previously described. Briefly, cartilage was dissected from the femoral patellar groove and condyles and minced into approximately 1 mm^2 pieces. Cells were isolated from the tissue by digesting overnight at 37° C. with 2 mg/ml type II collagenase (Worthington Biochemical Corp., Lakewood, N.J.), 5% fetal bovine serum (FBS), 100 U/ml penicillin and 100 μg/ml streptomycin on an orbital shaker. The cell suspension was passed through a 70 μm cell strainer, followed by centrifugation. Cells were washed 3 times using sterile phosphate buffered saline (PBS). […]
Metabolic Activity/Toxicity Screening: Water Soluble Tetrazonium-1 (WST-1) Assay. […] Absorbance of the wells was read using a microplate reader at a wavelength of 450 nm. The absorbance of the wells containing WST-1 reagent with no cells was subtracted from the absorbance readings. Data is presented as the background subtracted reading normalized to 0 μM wells from five independent experiments for each hexosamine analog.

[3] = system: chondrogenic-induced MSCs stimulated by IL-1β; experiment: IL-1β-stimulated chondrogenic-induced MSCs in 3D PEGDA hydrogels: biochemical analysis; type: cell-based, goat; conditions: 10 ng/ml IL-1β, 21 days exposure
Description: as §1
Photoencapsulation in Poly(Ethylene Glycol)-Diacrylate (PEGDA) Hydrogels and Construct Culturing. […]
as §2

[4] = system: IL-1β-stimulated chondrocytes; experiment: IL-1β-stimulated chondrocytes in 3D PEGDA hydrogels: biochemical analysis (DNA, sGAG, collagen), histology, immunohistochemistry; type: cell-based, bovine; conditions: 10 ng/ml IL-1β, 21 days
Description: Cell Isolation and Culturing. Bovine chondrocytes were isolated from 4- to 8-week-old calves (Research 87, Inc., Boylston, Mass.), as previously described. Briefly, cartilage was dissected from the femoral patellar groove and condyles and minced into approximately 1 mm^2 pieces. Cells were isolated from the tissue by digesting overnight at 37° C. with 2 mg/ml type II collagenase (Worthington Biochemical Corp., Lakewood, N.J.), 5% fetal bovine serum (FBS), 100 U/ml penicillin and 100 μg/ml streptomycin on an orbital shaker. The cell suspension was passed through a 70 μm cell strainer, followed by centrifugation. Cells were washed 3 times using sterile phosphate buffered saline (PBS). Chondrocyte medium was composed of high glucose Dulbecco's Modified Eagle's Medium (DMEM) supplemented with 10 mM HEPES, 0.4 mM L-proline, 50 μg/ml ascorbic acid, 10% (v/v) fetal bovine serum (FBS; Hyclone Laboratories, Inc., Logan, Utah), 0.1 mM non-essential amino acids, 100 U/ml penicillin and 100 μg/ml streptomycin.
as §3
For chondrocyte experiments, the cell-laden hydrogels were cultured in chondrocyte medium supplemented with 10 ng/ml IL-1β for 3 days. Following the initial 3 days, constructs were cultured with medium containing specific concentrations of hexosamine analog with 10 ng/ml IL-1β for an additional 21 days. The medium was changed 3 times per week.
Biochemical Analysis. The constructs (n=3 for chondrocyte experiments and n=4 for chondrogenic experiments) were lyophilized for 48 hours and the dry weights measured. Constructs were then homogenized in 125 μg/ml papainase (Worthington Biochemical Corp., Lakewood, N.J.) and digested for 16 hours at 60° C. Quantification of DNA content was carried out using a Hoescht Dye 33342 DNA assay. Calf thymus DNA was used to generate standard curves. Quantification of sulfated glycosaminoglycans (sGAG), a molecule found in cartilage ECM, was carried out using a 1,9-dimethylmethylene blue (DMMB) dye assay; chondroitin sulfate was used to generate standard curves. Quantification of collagen was carried out via measuring hydroxyproline content after hydrolyzing in 6 N HCl overnight at 120° C. The reaction of hydroxyproline with chloramine-T and p-dimethylaminobenzaldehyde was performed as a measure of total collagen content; hydroxyproline was used to generate standard curves.
Histology and Immunohistochemistry. Constructs were fixed in 10% formalin or 4% paraformaldehyde followed by dehydration in increasing concentrations of ethanol, embedded in paraffin and sliced into 5 μm sections. After paraffin removal and subsequent rehydration, sections were stained for proteoglycans using Safranin-O and fast green or prepared for immunohistochemistry. For immunohistochemical staining of type II collagen, endogenous peroxidase was quenched using 3% (v/v) hydrogen peroxide in methanol. Sections were then incubated at 37° C. with 2.5% (w/v) hyaluronidase and stained using a Histostain-SP Kit (AEC, Broad Spectrum) (Life Technologies, Grand Island, N.Y.) following the manufacturer's instructions. […]

[5] = both medium conditions, 21 days, dexamethasone 100 nM

DNA content ([1]; with or without ascorbic acid): did not change | DNA content [3]: did not have an effect
Structure (SMILES): CCCC(=O)OC[C@H]1OC(O)[C@H](NC(C)=O)[C@@H](OC(=O)CCC)[C@H]1OC(=O)CCC (stereo partly drawn) [GalNAc-a, 3,4,6-O-Bu3GalNAc]
chondrogenic differentiation of the MSCs [1]: inhibits chondrogenic differentiation | total collagen accumulation normalized to DNA ([1]; ascorbic acid-containing medium, GalNAc-a varying concentrations, dexamethasone 100 nM): dose-dependent decrease | sGAG accumulation normalized to DNA ([1]; both medium conditions (with/without ascorbic acid), GalNAc-a varying concentrations, dexamethasone 100 nM): dose-dependent decrease | SOX9 gene expression ([2]; 50 μM to 150 μM, both medium conditions, 21 days): decreased in a dose-dependent manner | SOX9 gene expression ([2]; 50 μM, ascorbic acid-containing medium, 21 days): increased SOX9 expression | type I collagen gene expression ([2]; 50 μM, both medium conditions, 21 days): initially increased | type I collagen gene expression compared to no analog exposure ([2]; above 50 μM for GalNAc-a, dexamethasone 100 nM, both medium conditions): remained elevated | MMP13 gene expression ([2]; all analog concentrations, regardless of medium condition): increased at all analog concentrations | aggrecan gene expression [2, 5]: followed a similar trend as SOX9 expression | type II collagen gene expression [2, 5]: decreased type II collagen expression | concentration from which reduced viability was observed (Chondrocytes): ≥ 160 µM | sGAG accumulation normalized to DNA [3]: decreased sGAG accumulation | proteoglycan deposition (Safranin-O staining) ([4]; at 150 μM): further increase | sGAG accumulation normalized to DNA ([4]; at 150 μM): further increase | type II collagen deposition (immunohistochemistry) ([4]; starting at 50 μM, comparison of the three analogs): highest staining intensity | cartilage-like tissue formation (sGAG content, proteoglycan and type II collagen staining) ([4]; comparison of the three analogs): greatest cartilage-like tissue formation
